Where two headings read alike, the source gives them in different places.
Experiments:
[1] = target: His tagged full-length PTPN1 protein (Homo sapiens (Human), UniProt P18031); test: PTPN1 Mobility Shift Assay (MSA); format: biochemical; conditions: enzyme 0.5 nM, substrate 2 μM
Experimental: Example III-2: Mobility Shift Assay (MSA) Used to Determine Potency of PTPN1 Inhibitors
Compound activity was determined using in house His tagged full-length PTPN1 protein (SEQ ID NO: 3) in an in vitro enzymatic reaction. The enzymatic assay used to determine activity is a mobility shift assay using a LabChip EZ Reader by Caliper Life Sciences. The enzymatic reaction was carried out in assay buffer (50 mM HEPES pH 7.5, 1 mM EGTA, 10 mM EDTA, 0.01% Tween® 20, and 2 mM DTT). The compounds were dispensed on a white 384 well ProxiPlate™ (PerkinElmer Cat ^#6008289) plate using a Labcyte Echo® liquid handler at varying concentrations (12 point, 1:3 dilution). The enzyme (at 0.5 nM) was incubated with compound for 10 minutes at room temperature. Thereafter, the substrate (phosphorylated insulin receptor probe sequence: ((OG488)-(NH—CH2—CH2—O—CH2—CH2—O—CH2—CO)-T-R-D-I—(PY)-E-T-D-Y—Y—R—K—K—NH2) (SEQ ID NO: 2) was added at 2 μM to the plates and incubated for another 10 minutes at room temperature. Finally, a quench solution (water and 4-bromo-3-(2-oxo-2-propoxyethoxy)-5-(3-{[1-(phenylmethanesulfonyl)piperidin-4-yl]amino}phenyl)thiophene-2-carboxylic acid) was added to the plates, which were then run on the EZ Reader (excitation 488 nm, emission 530 nm) to measure % conversion (the amount of phosphorylated substrate which was de-phosphorylated by PTPN1). […] The % inhibition was then used to calculate the IC50 values.

[2] = system: IFNγ-induced STAT1 phosphorylation (pSTAT1) in B16F10 cells; test: B16F10 Phospho-STAT1 HTRF proximal pharmacodynamic (PD) assay; format: cell-based, murine; conditions: for EC50: B16-F10, B16F10 cells; for Dihydrobenzofuran or Indoline x-fold>potency cellular: x-fold versus corresponding chromane comparator, B16F10 pSTAT1
Experimental: Example III-3: B16F10 (Murine Melanoma Cells) Phospho-STAT1 HTRF Proximal Pharmacodynamic (PD) Assay
B16F10 cells were grown and maintained in high glucose DMEM (Gibco, Catalog^#11965-092, Dun Laoghaire Co Dublin) supplemented with 10% fetal bovine serum (Gibco, Catalog^#10082-139, Dun Laoghaire Co Dublin). The cells were pelleted and resuspended in high glucose DMEM without phenol red (Gibco, Catalog^#11054-020, Dun Laoghaire Co Dublin), supplemented with 10% fetal bovine serum and plated in a 384 well Corning plate (product^#3765, Corning, NY) at 11,000 cells per well in a volume of 20 μL. The cells were dosed with the compounds of interest using an Echo Liquid Handler (Beckman Coulter, Brea, CA) at 50 μM top dose with 3-fold dilutions down to 0.002679 μM for a 10-point dose response. The plate was incubated for 3 hours at 37° C. and subsequently treated with recombinant mouse IFNγ (R&D Systems, Catalog^#485-MI, Minneapolis, MN; 100 nM final concentration) for 10 minutes at 37° C. to induce STAT1 phosphorylation followed by 3.3 μM staurosporine treatment for 1 hour at 37° C. to terminate phosphorylation. Media was then aspirated and 20 μL of 1× lysis buffer/blocking reagent (Cisbio Phospho-STAT1 kit, part^# 63ADK026PEH, Bedford, MA) was added. The plate was placed on a plate shaker for 30 minutes at room temperature, sealed, and stored at −80° C. until needed. To thaw, the plate was placed on shaker at room temperature until completely thawed while the antibody master mix was made (1:40 Phospho-STAT1 Eu Cryptate antibody, 1:40 Phospho-STAT d2 antibody, with the detection buffer; Cisbio Phospho-STAT1 kit, part^#63ADK026PEH, Bedford, MA). The antibody master mix was then dispensed at 4 μL per well into a 384 ProxiPlate Plus (PerkinElmer, part^#6008289, Waltham, MA) and 16 μL of lysate was added from the Corning plate to the Proxiplate using a VIAFLO 384 (INTEGRA). The plate was incubated for 3 hours at room temperature and read on an EnVision® (Perkin Elmer) plate reader with laser excitation at 335 nm and emission at 665 nm. Dotmatics Studies (Bishop's Stortford, UK) was utilized to generate all dose-response curves and calculate EC50s and are shown in Table 2.

[3] = target: His tagged PTPN2 (TC45) protein (Homo sapiens (Human), UniProt P17706); test: PTPN2 Mobility Shift Assay (MSA); format: biochemical; conditions: for Dihydrobenzofuran or Indoline x-fold>potency biochemical: x-fold versus corresponding chromane comparator, PTPN2 MSA
Sequence of His tagged PTPN2 (TC45) protein (P17706 other isoform, or with tags, fused parts or gaps): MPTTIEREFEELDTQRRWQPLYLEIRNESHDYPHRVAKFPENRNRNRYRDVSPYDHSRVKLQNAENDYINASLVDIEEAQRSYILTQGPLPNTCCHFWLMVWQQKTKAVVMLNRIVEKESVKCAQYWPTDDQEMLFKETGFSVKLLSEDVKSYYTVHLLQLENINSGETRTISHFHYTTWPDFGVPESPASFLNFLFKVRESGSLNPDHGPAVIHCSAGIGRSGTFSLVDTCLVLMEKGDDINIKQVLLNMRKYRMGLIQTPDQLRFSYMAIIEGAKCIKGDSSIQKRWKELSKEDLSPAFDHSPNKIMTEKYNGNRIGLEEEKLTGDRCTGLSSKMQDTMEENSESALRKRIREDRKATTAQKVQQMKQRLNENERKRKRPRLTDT
Experimental: Example III-1: Mobility Shift Assay (MSA) Used to Determine Potency of PTPN2 Inhibitors
Compound activity was determined using in house His tagged PTPN2 (TC45) protein (SEQ ID NO: 1) in an in vitro enzymatic reaction. The enzymatic assay used to determine activity was a mobility shift assay using a LabChip EZ Reader by Caliper Life Sciences. The enzymatic reaction was carried out in assay buffer (50 mM HEPES pH 7.5, 1 mM EGTA, 10 mM EDTA, 0.01% Tween® 20, and 2 mM DTT). The compounds were dispensed on a white 384 well ProxiPlate™ (PerkinElmer Catalog #6008289) plate using the Labcyte Echo at varying concentrations (12 point, 1:3 dilution). The enzyme (at 0.5 nM) was incubated with compound for 10 minutes at room temperature. Thereafter, the substrate (phosphorylated insulin receptor probe sequence: ((OG488)-(NH—CH2—CH2—O—CH2—CH2—O—CH2—CO)-T-R-D-I—(PY)-E-T-D-Y—Y—R—K—K—NH2) (SEQ ID NO: 2) was added at 2 μM to the plates and incubated for another 10 minutes at room temperature. Finally, a quench solution (water and 4-bromo-3-(2-oxo-2-propoxyethoxy)-5-(3-{[1-(phenylmethanesulfonyl)piperidin-4-yl]amino}phenyl)thiophene-2-carboxylic acid) was added to the plates, which were then run on the EZ Reader (excitation 488 nm, emission 530 nm) to measure % conversion (the amount of phosphorylated substrate which was de-phosphorylated by PTPN2). […] The % inhibition was then used to calculate the IC50 values.

[4] = 3 hours compound, 100 nM mouse IFNγ 10 minutes, read-out: B16F10 IFNγ Induced pSTAT1 EC50
[5] = Mus musculus, Table 3, dihydrobenzofuran or indoline compound (X = O or NH), read-out: pSTAT1 EC50
[6] = Table 3, dihydrobenzofuran or indoline compound (X = O or NH)

Sequence of His tagged full-length PTPN1 protein (P18031 whole entry): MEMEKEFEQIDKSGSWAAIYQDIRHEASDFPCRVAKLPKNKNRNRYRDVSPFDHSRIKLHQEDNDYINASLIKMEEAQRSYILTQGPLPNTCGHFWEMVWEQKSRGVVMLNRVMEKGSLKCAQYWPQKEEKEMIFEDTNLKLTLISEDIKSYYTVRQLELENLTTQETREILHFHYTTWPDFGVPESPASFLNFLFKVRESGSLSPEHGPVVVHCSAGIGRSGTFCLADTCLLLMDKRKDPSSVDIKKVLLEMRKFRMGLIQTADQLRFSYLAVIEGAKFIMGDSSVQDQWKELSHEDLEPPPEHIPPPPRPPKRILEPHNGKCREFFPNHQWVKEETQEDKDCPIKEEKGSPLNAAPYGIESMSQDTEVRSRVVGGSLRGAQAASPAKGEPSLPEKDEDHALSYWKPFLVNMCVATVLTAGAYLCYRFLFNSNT

Row | SMILES | IC50 [1] [nM] | EC50 [2, 4] [nM] | EC50 [2, 5] [nM] | Dihydrobenzofuran or Indoline x-fold>potency cellular [2] | IC50 [3, 6] [nM] | IC50 ([3]; enzyme 0.5 nM, substrate 2 μM) [nM] | Dihydrobenzofuran or Indoline x-fold>potency biochemical [3]
1 | O=C1CN(c2c(O)cc3c(c2F)C[C@H](CNCCC2CCOC2)O3)S(=O)(=O)N1 (stereo partly drawn) [Compound 108, 5-[(2R)-4-fluoro-6-hydroxy-2-({[2-(oxolan-3-yl)ethyl]amino}methyl)-2,3-dihydro-1-benzofuran-5-yl]-1λ^6,2,5-thiadiazolidine-1,1,3-trione] | 10 to 100 | 1910 | 1910 | 11.8 | 15.8 | 10 to 100 | 2.3
2 | CCCNC[C@H]1Cc2c(cc(O)c(N3CC(=O)NS3(=O)=O)c2F)O1 [Compound 109, 5-{(2R)-4-fluoro-6-hydroxy-2-[(propylamino)methyl]-2,3-dihydro-1-benzofuran-5-yl}-1λ^6,2,5-thiadiazolidine-1,1,3-trione] | 10 to 100 | 1350 | – | – | – | 10 to 100 | –
3 | CCCN(CCC)C[C@H]1Cc2c(cc(O)c(N3CC(=O)NS3(=O)=O)c2F)O1 [Compound 110, 5-{(2R)-2-[(dipropylamino)methyl]-4-fluoro-6-hydroxy-2,3-dihydro-1-benzofuran-5-yl}-1λ^6,2,5-thiadiazolidine-1,1,3-trione] | 10 to 100 | 18000 | – | – | – | 10 to 100 | –
4 | CCCCNC[C@H]1Cc2c(cc(O)c(N3CC(=O)NS3(=O)=O)c2F)O1 [Compound 111, 5-{(2R)-2-[(butylamino)methyl]-4-fluoro-6-hydroxy-2,3-dihydro-1-benzofuran-5-yl}-1λ^6,2,5-thiadiazolidine-1,1,3-trione] | 10 to 100 | 1110 | – | – | – | 10 to 100 | –
5 | CCNC[C@H]1Cc2c(cc(O)c(N3CC(=O)NS3(=O)=O)c2F)O1 [Compound 112, 5-{(2R)-2-[(ethylamino)methyl]-4-fluoro-6-hydroxy-2,3-dihydro-1-benzofuran-5-yl}-1λ^6,2,5-thiadiazolidine-1,1,3-trione] | 10 to 100 | 776 | – | – | – | 10 to 100 | –
6 | O=C1CN(c2c(O)cc3c(c2F)C[C@H](CNCC2CCCC2)O3)S(=O)(=O)N1 [Compound 113, 5-[(2R)-2-{[(cyclopentylmethyl)amino]methyl}-4-fluoro-6-hydroxy-2,3-dihydro-1-benzofuran-5-yl]-1λ^6,2,5-thiadiazolidine-1,1,3-trione] | 10 to 100 | 770 | – | – | – | 10 to 100 | –
7 | O=C1CN(c2c(O)cc3c(c2F)C[C@H](CNCC2CCOCC2)O3)S(=O)(=O)N1 [Compound 114, 5-[(2R)-4-fluoro-6-hydroxy-2-({[(oxan-4-yl)methyl]amino}methyl)-2,3-dihydro-1-benzofuran-5-yl]-1λ^6,2,5-thiadiazolidine-1,1,3-trione] | 10 to 100 | 1460 | – | – | – | 10 to 100 | –
8 | CC(C)CCNC[C@H]1Cc2c(cc(O)c(N3CC(=O)NS3(=O)=O)c2F)O1 [Compound 115, 5-[(2R)-4-fluoro-6-hydroxy-2-{[(3-methylbutyl)amino]methyl}-2,3-dihydro-1-benzofuran-5-yl]-1λ^6,2,5-thiadiazolidine-1,1,3-trione] | 10 to 100 | 835 | 835 | 8.3 | 17.1 | 10 to 100 | 0.9
9 | CCC(C)CNC[C@H]1Cc2c(cc(O)c(N3CC(=O)NS3(=O)=O)c2F)O1 (stereo partly drawn) [Compound 116, 5-[(2R)-4-fluoro-6-hydroxy-2-{[(2-methylbutyl)amino]methyl}-2,3-dihydro-1-benzofuran-5-yl]-1λ^6,2,5-thiadiazolidine-1,1,3-trione] | 10 to 100 | 736 | – | – | – | 10 to 100 | –
10 | O=C1CN(c2c(O)cc3c(c2F)C[C@H](CNCC2CC2)O3)S(=O)(=O)N1 [Compound 117, 5-[(2R)-2-{[(cyclopropylmethyl)amino]methyl}-4-fluoro-6-hydroxy-2,3-dihydro-1-benzofuran-5-yl]-1λ^6,2,5-thiadiazolidine-1,1,3-trione] | 10 to 100 | 818 | – | – | – | 10 to 100 | –

The next lines start with results.

Row | IC50 [1] [nM] | EC50 [2, 4] [nM] | EC50 [2, 5] [nM] | SMILES | Dihydrobenzofuran or Indoline x-fold>potency cellular [2] | IC50 [3, 6] [nM] | IC50 ([3]; enzyme 0.5 nM, substrate 2 μM) [nM] | Dihydrobenzofuran or Indoline x-fold>potency biochemical [3]
11 | 10 to 100 | 20100 | – | O=C1CN(c2c(O)cc3c(c2F)C[C@H](CN(CC2CC2)CC2CC2)O3)S(=O)(=O)N1 [Compound 118, 5-[(2R)-2-{[bis(cyclopropylmethyl)amino]methyl}-4-fluoro-6-hydroxy-2,3-dihydro-1-benzofuran-5-yl]-1λ^6,2,5-thiadiazolidine-1,1,3-trione] | – | – | 10 to 100 | –
12 | 10 to 100 | 848 | – | O=C1CN(c2c(O)cc3c(c2F)C[C@H](CNCC2CCC2)O3)S(=O)(=O)N1 [Compound 119, 5-[(2R)-2-{[(cyclobutylmethyl)amino]methyl}-4-fluoro-6-hydroxy-2,3-dihydro-1-benzofuran-5-yl]-1λ^6,2,5-thiadiazolidine-1,1,3-trione] | – | – | 10 to 100 | –
13 | 10 to 100 | 1610 | – | O=C1CN(c2c(O)cc3c(c2F)C[C@H](CNCC2COC2)O3)S(=O)(=O)N1 [Compound 120, 5-[(2R)-4-fluoro-6-hydroxy-2-({[(oxetan-3-yl)methyl]amino}methyl)-2,3-dihydro-1-benzofuran-5-yl]-1λ^6,2,5-thiadiazolidine-1,1,3-trione] | – | – | 10 to 100 | –
14 | 10 to 100 | 1740 | – | O=C1CN(c2c(O)cc3c(c2F)C[C@H](CNCCC2(CO)CCC2)O3)S(=O)(=O)N1 [Compound 121, 5-{(2R)-4-fluoro-6-hydroxy-2-[({2-[1-(hydroxymethyl)cyclobutyl]ethyl}amino)methyl]-2,3-dihydro-1-benzofuran-5-yl}-1λ^6,2,5-thiadiazolidine-1,1,3-trione] | – | – | 10 to 100 | –
15 | 10 to 100 | 1980 | – | O=C1CN(c2c(O)cc3c(c2F)C[C@H](CNCCC2(CO)CCCC2)O3)S(=O)(=O)N1 [Compound 122, 5-{(2R)-4-fluoro-6-hydroxy-2-[({2-[1-(hydroxymethyl)cyclopentyl]ethyl}amino)methyl]-2,3-dihydro-1-benzofuran-5-yl}-1λ^6,2,5-thiadiazolidine-1,1,3-trione] | – | – | 10 to 100 | –

Source: patent US20250019374A1, “PROTEIN TYROSINE PHOSPHATASE INHIBITORS AND METHODS OF USE THEREOF” (Calico Life Sciences LLC, priority 2021, published 2025)
